One assay addresses ERK1 (Homo sapiens, UniProt P27361). Nature of the assay: Inhibitory action on ERK1. The class given is biochemical.
Another assay concerns the target p38α (Homo sapiens, UniProt Q16539). Put plainly: Inhibitory action on p38α. The assay is classed as biochemical.
The target of another assay is T1, human JNK1 (Homo sapiens, UniProt P45983).
T1 construct: His6 (Met-Ala-His6, read from primer JNK1-U) (N); made in house; host or cells: Sf-21 insect cells (baculovirus BAC-HJNK1 co-infected with BAC-caMKK7); cJUN substrate from E. coli JM109
Put plainly: Measurement of JNK inhibitory activity (32P uptake into cJUN by active JNK1). The assay is classed as biochemical. To be noted: 2.5 μM ATP, 30° C., 60 min. As for the experimental part: (4) Preparation of Active JNK1
Sf-21 cells were seeded to achieve 1×10^6 cells/ml in 100 ml of Sf-900 II SFM medium (GIBCO BRL) containing 10% fetal calf serum and cultured at 27° C. for 24 hrs. The recombinant baculovirus virus stock BAC-HJNK1 and BAC-caMKK7 were added by 0.2 ml each, and the cells were further cultured for 60 hrs. The cells were separated from the culture solution by centrifugation (3000 rpm, 10 min.) and washed twice with PBS. The cells were suspended in 10 ml of Lysis buffer (25 mM HEPES (pH 7.5), 1% Triton X, 130 mM NaCl, 1 mM EDTA, 1 mM DTT, 25 mM β-glycerophosphate, 20 μM leupeptin, 1 mM APMSF, 1 mM sodium orthovanadate) and ruptured by 4 times of treatment with a homogenizer (POLYTRON) at 20000 rpm, 30 seconds each. Active JNK1 was purified from a supernatant obtained by centrifugal separation (40000 rpm, 45 min.) by the use of Anti-FLAG M2 Affinity Gel (Sigma).
(5) Preparation of Recombinant cJUN
Escherichia coli JM109 (Toyobo Co., Ltd.) was transformed with a plasmid pGEJUN to give ampicillin resistant pGEJUN/JM109. The pGEJUN/JM109 strain was cultured overnight in 150 ml of LB medium (10 g/l tripton, 5 g/l yeast extract, 10 g/l sodium chloride) containing 50 μg/ml ampicillin at 200 rpm, 37° C. The culture solution (15 ml) was added to a fresh LB medium (150 ml) and cultured at 37° C. for 2 hrs. at 200 rpm. 1 mM IPTG (Wako Pure Chemical Industries, Ltd.) was added and the cells were further cultured for 6 hrs. The culture solution was centrifuged at 8000 rpm for 10 min. and bacterial cells were recovered, washed with PBS and frozen at −80° C. The cells were suspended in 20 ml of lysis buffer (B-PER bacterial protein extraction reagent (Pierce), Protease inhibitor Complete (Boehringer)) and shaken at room temperature for 10 min. After centrifugal separation (14000 rpm, 15 min., 4° C.), and GST-cJUN fused protein was purified from the supernatant using Redipack GST Purification Module (Amersham-Pharmacia Biotech).
(6) Measurement of JNK Inhibitory Activity
A reaction solution (37.5 μl, 25 mM HEPES (pH 7.5), 10 mM magnesium acetate, 1 mM DTT) containing 50 ng of active JNK1 and 1 μg of cJUN […]. The test compound (2.5 μl) was added and the mixture was incubated at 30° C. for 5 min. […] After reacting at 30° C. for 60 min., 50 μl of 20% TCA solution was added to stop the reaction. The reaction solution was left standing at 0° C. for 20 min. and an acid-insoluble fraction was transferred onto a GF/C filter (Packard Japan) using Cell Harvester (Packard Japan), and washed with 250 mM phosphoric acid. After drying at 45° C. for 60 min., 40 μl of Microscint 0 (Packard Japan) was added and the radioactivity was measured on TopCount (Packard Japan).

In a further assay the test system is Male wistar rats. Put plainly: Pressure overloaded cardiac hypertrophy induced by an abdominal aortic stenosis (rat). The settings on record: 10 mg/kg p.o. once a day, day 7 after aortic stenosis. The class given is in vivo. The method, then:
Preparation of the Model of Pressure Overloaded Cardiac Hypertrophy Induced by an Abdominal Aortic Stenosis (Rat)
Male wistar rats (body weight 260-300 g, CLEA Japan, Inc) were used. Under xylazine (10 mg/kg, i.p.) and ketamine (50 mg/kg, i.p.) anesthesia, abdominal aorta was exposed by median laparotomy. The left and right renal arteries were detached from the back, a 22G injection needle was put along the artery and it was ligated together with the aorta using a 2-0 silk thread just below the right renal artery. Then, the injection needle was removed to make a stenosis in the abdominal aorta. The abdomen was closed and the rats were housed commonly. For a sham group, the abdomen was closed without ligation (no stenosis) with a silk thread. A compound was suspended in a 0.5% methyl cellulose solution (2 ml/kg) and orally administered at a dose of 10 mg/kg 1 hr. before aortic stenosis and once a day from day 1 (the next day of stricture) to day 7 after operation. Vehicle (0.5% methyl cellulose solution) was administered instead of the compound to the sham group and control group. At day 7 after the preparation of aortic stenosis, the body weight was measured, and the heart was removed and then extracted under pentobarbital (50 mg/kg, i.p.) anesthesia. The right and left artium and right ventricle were excised from the heart and the wet weight of the left ventricle was measured. The left ventricle weight to body weight ratio of each rat was calculated and an increase from the average value of the sham group was calculated. Inhibitory rate of each group to a cardiac hypertrophy was calculated based on the control group as 100%.

SMILES strings stand for the structures. pIC50: −log10 of the molar value.

p38α, sequence (Q16539 whole entry): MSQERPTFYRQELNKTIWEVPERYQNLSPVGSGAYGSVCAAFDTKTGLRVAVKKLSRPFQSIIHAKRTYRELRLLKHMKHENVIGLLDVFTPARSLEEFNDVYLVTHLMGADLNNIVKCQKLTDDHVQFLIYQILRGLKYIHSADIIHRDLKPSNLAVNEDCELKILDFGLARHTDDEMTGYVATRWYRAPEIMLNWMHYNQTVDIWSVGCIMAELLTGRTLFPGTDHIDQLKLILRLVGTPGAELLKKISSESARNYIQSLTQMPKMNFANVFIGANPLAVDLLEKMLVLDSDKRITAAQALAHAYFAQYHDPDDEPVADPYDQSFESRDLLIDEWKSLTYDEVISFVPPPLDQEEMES
T1 sequence (P45983 1-384 isoform P45983-2): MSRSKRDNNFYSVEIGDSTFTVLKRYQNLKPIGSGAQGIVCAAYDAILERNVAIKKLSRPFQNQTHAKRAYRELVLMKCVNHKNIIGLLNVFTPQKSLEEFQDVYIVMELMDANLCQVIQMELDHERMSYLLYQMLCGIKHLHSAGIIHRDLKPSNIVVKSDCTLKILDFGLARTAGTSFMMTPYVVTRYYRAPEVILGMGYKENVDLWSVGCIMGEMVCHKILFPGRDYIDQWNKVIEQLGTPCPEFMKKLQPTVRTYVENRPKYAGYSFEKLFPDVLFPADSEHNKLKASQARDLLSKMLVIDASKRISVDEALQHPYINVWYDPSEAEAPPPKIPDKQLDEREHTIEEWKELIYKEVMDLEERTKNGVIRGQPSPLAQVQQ
ERK1, sequence (P27361 whole entry): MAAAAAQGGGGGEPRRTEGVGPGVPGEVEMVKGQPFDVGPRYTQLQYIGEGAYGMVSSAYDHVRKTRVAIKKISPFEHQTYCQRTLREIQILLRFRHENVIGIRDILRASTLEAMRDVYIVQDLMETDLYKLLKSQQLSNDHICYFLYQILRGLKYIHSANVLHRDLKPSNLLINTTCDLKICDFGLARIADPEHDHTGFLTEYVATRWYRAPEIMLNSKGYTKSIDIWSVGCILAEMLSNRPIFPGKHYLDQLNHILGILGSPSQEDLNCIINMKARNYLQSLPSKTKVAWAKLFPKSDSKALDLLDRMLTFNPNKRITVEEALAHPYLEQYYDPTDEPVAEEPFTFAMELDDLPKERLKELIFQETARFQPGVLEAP

By inhibition is commonly meant how much of the control response was suppressed. A higher inhibition goes with a response far below the control. For orientation: pIC50 means the IC50 on a negative log10 scale, so that one unit is a factor of ten. On to `C/C(N)=C/C(=O)c1c(-c2ccccc2)c2cc(Br)ccc2c(=O)n1Cc1ccc(S(C)(=O)=O)cc1` [Example 546, 3-[(2Z)-3-aminobut-2-enoyl]-6-bromo-2-(4-methanesulfonylbenzyl)-4-phenyl-2H-isoquinolin-1-one], for which the inhibition at 10 µM at ERK1 came to 5%; at p38α it was 0%. This molecule had a pIC50 against human JNK1 of 7.49.

For the molecule `COC(=O)c1c(-c2ccccc2)c2cc(Br)ccc2c(=O)n1Cc1ccc(S(N)(=O)=O)cc1` [Example 93, 6-bromo-1-oxo-4-phenyl-2-(4-sulfamoylbenzyl)-1,2-dihydroisoquinoline-3-carboxylic acid methyl ester], the inhibition at 10 µM against ERK1 was determined as 0%; against p38α, 20%. The molecule also gave a negative-log IC50 (pIC50) against human JNK1 of 7.85.

`COC(=O)c1c(-c2ccccc2)c2cc(Br)ccc2c(=O)n1Cc1ccc(NC(=O)CCC(=O)O)cc1` [Example 122, 6-bromo-2-[4-(3-carboxypropionylamino)benzyl]-1-oxo-4-phenyl-1,2-dihydroisoquinoline-3-carboxylic acid methyl ester]: the inhibition at 10 µM on ERK1 and at p38α was 0% each time. The molecule also gave a pIC50 on human JNK1 of 8.04.

As to `COC(=O)c1c(-c2ccccc2)c2cc(Br)ccc2c(=O)n1Cc1ccc(C(=O)O)cc1` [Example 102, 6-bromo-2-(4-carboxybenzyl)-1-oxo-4-phenyl-1,2-dihydroisoquinoline-3-carboxylic acid methyl ester], the inhibition at 10 µM at ERK1 and against p38α was 0% each time. This molecule also gave a pIC50 on human JNK1 of 7.70.

For the molecule `COC(=O)c1c(-c2ccccc2)c2cc(N)ccc2c(=O)n1Cc1ccc2c(c1)OCO2` [Example 156, 6-amino-2-(benzo[1,3]dioxol-5-ylmethyl)-1-oxo-4-phenyl-1,2-dihydroisoquinoline-3-carboxylic acid methyl ester], the inhibition at 10 µM was 16% against ERK1 and 10% at p38α. On human JNK1, this molecule showed a pIC50 of 7.55.

Take `CCN(CC)NC(=O)c1ccc(Cn2c(C(=O)OC)c(-c3ccccc3)c3cc(Br)ccc3c2=O)cc1` [Example 356, 6-bromo-2-[4-(N′,N′-diethylhydrazinocarbonyl)benzyl]-1-oxo-4-phenyl-1,2-dihydroisoquinoline-3-carboxylic acid methyl ester]: the inhibition at 10 µM against ERK1 and against p38α was 0% in each case. At human JNK1, this molecule gave a pIC50 of 8.12.

As to `CC(=O)c1c(-c2ccccc2)c2cc(Br)ccc2c(=O)n1Cc1ccc(S(N)(=O)=O)cc1` [Example 415, 3-acetyl-6-bromo-4-phenyl-2-(4-sulfamoylbenzyl)-2H-isoquinolin-1-one], the inhibition at 10 µM on ERK1 and against p38α was 0% each time. This molecule also gave a pIC50 on human JNK1 of 7.41.

`CCC(=O)c1c(-c2ccccc2)c2cc(Br)ccc2c(=O)n1Cc1ccc(-c2nnn[nH]2)cc1` [Example 495, 6-bromo-4-phenyl-3-propionyl-2-[4-(1H-tetrazol-5-yl)benzyl]-2H-isoquinolin-1-one]: the figures for the inhibition at 10 µM against ERK1 and against p38α were 37% and 0%, respectively. Moreover, the pIC50 at human JNK1 was 8.17.

In the case of `COC(=O)c1c(-c2ccccc2)c2cc(Br)ccc2c(=O)n1Cc1ccc2c(c1)OCO2` [Example 24, 2-(benzo[1,3]dioxol-5-ylmethyl)-6-bromo-1-oxo-4-phenyl-1,2-dihydroisoquinoline-3-carboxylic acid methyl ester], the inhibition at 10 µM against ERK1 turned out to be 39%; against p38α, 18%. The pIC50 on human JNK1 is 7.74.

With `COC(=O)c1c(-c2ccccc2)c2cc(Br)ccc2c(=O)n1CC1CCN(C(C)=O)CC1` [Example 112, 2-(1-acetylpiperidin-4-ylmethyl)-6-bromo-1-oxo-4-phenyl-1,2-dihydroisoquinoline-3-carboxylic acid methyl ester], the inhibition at 10 µM on ERK1 amounted to 0.095%; against p38α, 0%. The pIC50 on human JNK1 is 5.52.

Consider `COC(=O)c1c(-c2ccccc2)c2cc(Br)ccc2c(=O)n1Cc1ccc(S(C)(=O)=O)cc1` [Example 94, 6-bromo-2-(4-methanesulfonylbenzyl)-1-oxo-4-phenyl-1,2-dihydroisoquinoline-3-carboxylic acid methyl ester], for which the “Inhibitory rate (cardiac hypertrophy, control group as 100%)” value in the assay with Male wistar rats is on record as “rate 40%)”. Besides, the inhibition at 10 µM came out at 0% on ERK1 and 2% at p38α.

As for `CCCC(=O)c1c(-c2ccccc2)c2cc(Cl)ccc2c(=O)n1Cc1ccc(S(N)(=O)=O)cc1` [Example 455, 4-(6-chloro-3-butyryl-1-oxo-4-phenyl-1H-isoquinolin-2-ylmethyl)benzenesulfonamide], the inhibition at 10 µM against ERK1 and at p38α was 0% in each case. On human JNK1, this molecule had a pIC50 of 7.47.

Take `CCC(=O)c1c(-c2ccccc2)c2cc(Br)ccc2c(=O)n1Cc1ccc(S(C)(=O)=O)cc1` [Example 315, 6-bromo-2-(4-methanesulfonylbenzyl)-4-phenyl-3-propionyl-2H-isoquinolin-1-one]: in the assay on Male wistar rats, the “Inhibitory rate (cardiac hypertrophy, control group as 100%)” value was “rate 44%)”; the “Left ventricular weight/body weight ratio (mg/g) amount of increase from sham group” value is given as 0.29 ± 0.05 (Inhibitory mg/g; the “Left ventricular weight/body weight ratio (mg/g) value” is given as 2.19 ± 0.05 mg/g. In addition, the inhibition at 10 µM against ERK1 came to 1%. This molecule also returned an inhibition at 10 µM at p38α of 0%. This molecule had a pIC50 against human JNK1 of 7.34.

For the molecule `COC(=O)c1c(-c2ccccc2)c2cc(Br)ccc2c(=O)n1Cc1ccc(C(=O)NCCN2CCCC2)cc1` [Example 141, 6-bromo-1-oxo-4-phenyl-2-[4-(2-(pyrrolidin-1-yl)ethylcarbamoyl)benzyl]-1,2-dihydroisoquinoline-3-carboxylic acid methyl ester], the inhibition at 10 µM on ERK1 worked out at 4%; against p38α, 10%. The same molecule gave a pIC50 against human JNK1 of 7.43.

With `CCC(=O)c1c(-c2ccccc2)c2cc(Br)ccc2c(=O)n1Cc1ccc(C(=O)O)cc1` [Example 462, 4-(6-bromo-1-oxo-4-phenyl-3-propionyl-1H-isoquinolin-2-ylmethyl)benzoic acid], the inhibition at 10 µM stood at 13% against ERK1 and 0% at p38α. For the same molecule, at human JNK1, the pIC50 is 8.04.

For the molecule `CCC(=O)c1c(-c2ccccc2)c2cc(Cl)ccc2c(=O)n1Cc1ccc(C(=O)O)cc1` [Example 463, 4-(6-chloro-1-oxo-4-phenyl-3-propionyl-1H-isoquinolin-2-ylmethyl)benzoic acid], the inhibition at 10 µM was found to be 22% at ERK1 and 0% against p38α. The pIC50 against human JNK1 is 7.80.

Values taken from US7402595B2, “JNK inhibitor” (Takeda Pharmaceutical Company Limited, priority 2002, dated 2008).
